From patent US11465972B2, “Inhibitors of oxidized low-density lipoprotein receptor 1 and methods of use thereof” (United States Government as represented by the Department …, priority 2015, dated 2022)
Several values for one entry are separate records, joined by “and”; a condition that tells them apart may be missing. Identical values can stand only once.

Legend:
human LOX-1 = human LOX-1 (Homo sapiens, UniProt P78380); assay: Dil-ox-LDL uptake in CHO cells overexpressing human LOX-1; format: cell-based; settings: 0, 20, 200, 2000 nM, read-out: IC50, inhibition of Dil-ox-LDL uptake
Procedure: FIG. 3A, FIG. 3B, FIG. 3C and FIG. 3D depict the inhibitory effect of the lead compounds on Dil-ox-LDL uptake by HUVECs and CHO cells (measured by flow cytometry) and the effect of the lead compounds on ox-LDL-induced LOX-1 mRNA and protein expression. (FIG. 3A) (Upper Panel) Flow cytometry measurements using HUVECs in the presence of the five lead compounds (Mol-1-Mol-5), each a at 200 nM concentration. (Lower Panel) The percentage of internalized ox-LDL. Graphs show data as mean (±SD); n=4. *P<0.01 or <0.05 vs. control. (FIG. 3B) IC50 value for Mol-5. IC50 value (in nM) is based on inhibition of Dil-ox-LDL uptake in CHO cells overexpressing human LOX-1. Graphs show data as mean (±SD); n=5. *P<0.01 or <0.05 vs. control. (FIG. 3C) Western blotting assay showing LOX-1 protein expression in HUVECs following incubation with 200 nM Mol-1 to Mol-5 for 30 min, and subsequently exposure to 5 μg/mL ox-LDL for 6 hours. […]
For further characterization, human endothelial cells and fluorescently-labeled Dil-ox-LDL were used for measuring initiation of atherogenic process based on interaction of vascular wall with ox-LDL. Ox-LDL uptake by human umbilical vein endothelial cells (HUVECs) was measured after exposure to 200 nM of each compound using flow cytometry. […] The dose response to modulation of ox-LDL uptake by Mol-5 (0, 20, 200 and 2000 nM) was also measured in CHO cells overexpressing human LOX-1. […]

[1] = Liver microsomal stability, human; format: in vitro ADME; settings: human liver microsomes
Procedure: (§1) Metabolic stability or clearance is recognized as one of the main determinants of drug concentration in blood. The metabolic stability of Mol-5 was tested using liver microsomes form mice and humans to obtain stability ranking and intrinsic clearance.

[2] = Liver microsomal stability, mouse; format: in vitro ADME; settings: mouse liver microsomes
Procedure: as §1

Q: What does the source list for `Cc1cc(C)n(CC(O)COc2ccccc2)n1` (stereo not shown) [Mol-5, 1-(3,5-dimethyl-1H-pyrazol-1-yl)-3-phenoxypropan-2-ol]?
A: IC50 (human LOX-1): ~200 nM and 200 nM; half-life [1]: 55.3 ± 2.2 min; metabolic stability (in words) [1]: reasonable stability; microsomal CLint [1]: 25.1 ± 1 µL/min/mg; half-life [2]: 1.7 ± 0.1 min; metabolic stability (in words) [2]: low stability; microsomal CLint [2]: 836 ± 40.8 µL/min/mg
